Assays:
[1] = Colloidal probe microscopy (CPM): adhesion force (Fad) in liquid HPFP in the presence of surfactants and/or cosolvents; type: physicochemical; conditions: 298 K
Text: Preparation and Characterization of the Drug-Modified AFM Cantilever (Colloidal Probe). Single salbutamol crystals were glued onto silicon nitride contact-mode cantilevers (NP-20) with the help of an AFM (Pico LE, Molecular Imaging). In brief, the cantilever was first positioned above a tiny drop of epoxy (Epotek 377). The AFM cantilever was then slowly approached toward the epoxy. A tiny amount of it was then carefully transferred onto the AFM tip. A similar procedure was used to attach the drug particle to the AFM tip containing the epoxy. The particle-modified AFM tip was then kept at room temperature for 24 h to allow the complete curing of the epoxy. SEM images of the drug-modified cantilevers were obtained after the adhesion force measurements to verify the integrity and quality of the probe. The spring constant of the drug-modified cantilevers was determined using a module attached to the AFM and the MI Thermal K 1.02 software. Preparation and Characterization of the Drug Crystal Substrate. Salbutamol was first dissolved in ethanol to saturation. The solution was then transferred onto a cover glass previously treated with piranha solution (7:3 v/v H2SO4/H2O2). The system was kept inside a scaled Petri dish. The crystallization process of salbutamol was induced by the controlled evaporation of ethanol. Optical microscopy was used to observe the crystal morphology. The surface topography of the salbutamol crystal was examined by AFM under tapping mode, with a silicon cantilever (BS-Multi 75). Colloidal Probe Microscopy (CPM). The force of adhesion (Fad) between the salbutamol-modified cantilever and a smooth salbutamol crystal substrate was determined by CPM, at 298 K. A fluid cell was used to perform the experiments in liquid HPFP. The procedure adopted here is similar to that used to investigate the effect of other excipients on drug-drug interactions. FIG. 2a is the schematic diagram of a typical force curve obtained during the CPM measurements. The Fad is determined as the product of the spring constant (k) of the drug-modified AFM cantilever and the maximum cantilever deflection (x) during the retraction stage of the force measurement; […]; as schematically shown in FIG. 2a. Several contact points, randomly distributed on the crystal surfaces over a 9 μm×9 μm area, were selected for the measurements. At each contact point, 25 force-distance curves were measured. The tip was moved toward and away from the substrate in a range of 2000 nm and a sweep duration of 2 s. The histograms of the measured Fad were fit to a Gaussian distribution, from which an average Fad and deviation were obtained. The same drug probe was used throughout the measurements to guarantee a constant contact area. Great care was taken to guarantee the integrity of the drug probe. Since the solubility of salbutamol in HPFP is negligible, before each new adhesion force measurement, the drug probe and drug crystal substrate were thoroughly rinsed with HPFP, followed by an Fad test in pure HPFP. […] A second set of completely independent measurements (new probe and crystal substrate) were obtained to assess the reproducibility of the reported trend in Fad.

[2] = Solubility in propellant / solvent; type: physicochemical

With CCCCCCCC/C=C\CCCCCCCC(=O)O [Oleic acid] the “Fad probe 1” value ([1]; surfactant 1.0 mM with cosolvent ethanol 7% (v/v), probe 1) was 1.54 ± 0.35 nN, the “Fad probe 1” value ([1]; surfactant 1.0 mM with cosolvent ethanol 7% (v/v), probe 1, listed as oleic acid) was 1.54 nN and the “Fad probe 2” value ([1]; surfactant 1.0 mM with cosolvent ethanol 7% (v/v)) was 1.64 ± 0.21 nN.
In the case of CC(C)(C)NCC(O)c1ccc(O)c(CO)c1 (stereo not shown) [salbutamol], the “Solubility in HPFP” value ([2]; HPFP) is reported as “negligible” and the Solubility in ethanol ([2]; ethanol) is reported as “appreciable solubility”.
With CCO [Ethanol] the “Fad probe 1” value ([1]; no surfactant, cosolvent ethanol 7% (v/v) alone, probe 1) was 6.31 ± 0.47 nN and the “Fad probe 2” value ([1]; no surfactant, cosolvent ethanol 7% (v/v) alone) was 5.01 ± 0.26 nN.
